# Reference: patent US20240090505A1, “MULTI-SOLVENT PESTICIDAL COMPOSITIONS INCLUDING SULFOXIMINE” (CLARKE MOSQUITO CONTROL PRODUCTS, INC., priority 2020, published 2024)
# Test system: Culex sp. mosquitos
# Assay: Laboratory test of samples with and without surfactant (Pluronic L92), knockdown and mortality
# Type: in vivo
# Conditions: propylene carbonate:tributyl O-acetylcitrate 1:1
# Description: Various amounts of different surfactants were evaluated to determine possible impacts on efficacy. In one set of trials, different amounts of sulfoxaflor were tested with and without a surfactant (Pluronic L92 from BASF).
compound,measurement,setting,value
"CC(c1ccc(C(F)(F)F)nc1)S(C)(=O)=NC#N (stereo not drawn) [Sulfoxaflor, sulfoxaflor]",1-hour knockdown,"0.5 wt% sulfoxaflor, 20 wt% surfactant (Pluronic L92)",2%
same,1-hour knockdown,"0.5 wt% sulfoxaflor, no surfactant",0%
same,1-hour knockdown,"1 wt% sulfoxaflor, no surfactant",18%
